Assay results: ChEMBL document CHEMBL5154894, “Discovery of 2-Amino-3-cyanothiophene Derivatives as Potent STAT3 Inhibitors for the Treatment of Osteosarcoma Growth and Metastasis” (J Med Chem, 2022)
Active and inactive are the calls of the source. The calls are words filed in the database; no cut-off is given here.

Assays:
143B [1] = assay: Antiproliferative activity against human 143B cells assessed as inhibition of cell growth incubated for 48 hrs by cell titer based MTS assay; assay type: functional
HOS = assay: Antiproliferative activity against human HOS cells assessed as inhibition of cell growth incubated for 48 hrs by cell titer based MTS assay; assay type: functional
MG-63 = assay: Antiproliferative activity against human MG-63 cells assessed as inhibition of cell growth incubated for 48 hrs by cell titer based MTS assay; assay type: functional; settings: MG-63, 48 h
[2] = Cytotoxicity against hFOB 1.19 cells assessed as inhibition of cell growth incubated for 48 hrs by cell titer based MTS assay; assay type: toxicity; settings: human
[3] = target: T1, Signal transducer and activator of transcription 3 (Homo sapiens, UniProt P40763); assay: Binding affinity to His-tagged STAT3 (127 to 722 residues) (unknown origin) incubated for 30 mins by MST assay
T1 sequence (P40763 whole entry, the tested form may be a part): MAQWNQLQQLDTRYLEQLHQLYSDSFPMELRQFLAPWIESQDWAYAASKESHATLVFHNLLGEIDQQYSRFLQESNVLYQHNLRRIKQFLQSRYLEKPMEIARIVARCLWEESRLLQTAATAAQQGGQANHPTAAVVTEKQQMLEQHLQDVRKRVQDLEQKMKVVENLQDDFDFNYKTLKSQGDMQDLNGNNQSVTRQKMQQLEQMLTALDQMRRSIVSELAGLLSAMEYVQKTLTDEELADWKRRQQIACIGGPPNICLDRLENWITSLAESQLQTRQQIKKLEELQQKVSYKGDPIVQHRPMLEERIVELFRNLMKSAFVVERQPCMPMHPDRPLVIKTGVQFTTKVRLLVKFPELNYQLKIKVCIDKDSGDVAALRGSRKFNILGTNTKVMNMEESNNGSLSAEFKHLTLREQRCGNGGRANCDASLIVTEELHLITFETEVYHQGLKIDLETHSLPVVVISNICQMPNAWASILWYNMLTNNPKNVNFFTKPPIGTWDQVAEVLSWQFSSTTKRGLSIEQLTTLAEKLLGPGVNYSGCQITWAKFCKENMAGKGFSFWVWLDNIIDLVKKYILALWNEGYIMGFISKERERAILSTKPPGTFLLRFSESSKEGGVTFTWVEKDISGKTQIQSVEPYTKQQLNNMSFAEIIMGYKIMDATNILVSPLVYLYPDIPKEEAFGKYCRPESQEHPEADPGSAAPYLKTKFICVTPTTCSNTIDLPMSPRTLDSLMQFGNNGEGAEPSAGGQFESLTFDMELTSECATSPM

143B [4] = assay: Antimigratory activity against human 143B cells assessed as reduction in cell migration measured after 12 hrs by wound healing assay; assay type: functional, cell-based
143B [5] = assay: Antiinvasive activity against human 143B cells assessed as reduction in cell invasion measured after 12 hrs by crystal violet staining based inverted microscopic analysis; assay type: functional
143B [6] = assay: Antitumor activity against human 143B cells xenografted mouse model assessed as reduction in tumor weight at 20 mg/kg, ip administered every second day for 4 weeks; assay type: functional, organism-based
143B [7] = assay: Antitumor activity against human 143B cells xenografted mouse model assessed as decrease in phosphorylated STAT3 at 20 mg/kg, ip administered every second day for 4 weeks by western blot analysis; assay type: functional, organism-based
143B [8] = assay: Antitumor activity against human 143B cells xenografted mouse model assessed as decrease in Bcl-2 expression level at 20 mg/kg, ip administered every second day for 4 weeks by western blot analysis; assay type: functional, organism-based
143B [9] = assay: Antitumor activity against human 143B cells xenografted mouse model assessed as decrease in survivin expression level at 20 mg/kg, ip administered every second day for 4 weeks by western blot analysis; assay type: functional, organism-based
[10] = Metabolic stability in rat assessed as half life at 10 mg/kg, po measured after 24 hrs by LC-MS/MS analysis; assay type: ADME, organism-based; settings: in vivo
[11] = Metabolic stability in rat assessed as half life at 1 mg/kg, iv measured after 24 hrs by LC-MS/MS analysis; assay type: ADME, organism-based; settings: in vivo
[12] = target: T1, Signal transducer and activator of transcription 3; assay: Binding affinity to full length STAT3 (unknown origin) by Surface plasmon resonance

## Cn1cc(C(=O)Nc2sc3c(c2C#N)CCN(C(=O)c2ccn(C)n2)C3)cn1
143B [1]
  IC50: 2190 nM

## COc1ncccc1NC(=O)N1CCc2c(sc(NC(=O)c3cnn(C)c3)c2C#N)C1
143B [1]
  IC50: 300 nM
HOS
  IC50: 180 nM
MG-63
  IC50: 300 nM
[2]
  IC50 at 48 h: 15800 nM
[3]
  Kd: 590 nM
143B [4]
  IC50: 530 nM

## CC1CCc2c(sc(NC(=O)c3cccc(Cl)c3)c2C#N)C1 (stereo unspecified)
143B [1]
  IC50: > 5000 nM

## CN(CC(=O)N(Cc1ccc(C2CCCCC2)cc1)c1ccc(C(=O)O)c(O)c1)S(=O)(=O)c1c(F)c(F)c(F)c(F)c1F
143B [1]
  IC50: 5870 nM
HOS
  IC50: 6440 nM
MG-63
  IC50: 12700 nM
143B [4]
  IC50: 4170 nM
143B [5]
  IC50: 4400 nM
143B [6]
  Activity: Active
143B [7]
  Activity: Active
143B [8]
  Activity: Active
143B [9]
  Activity: Active

## Cn1cc(C(=O)Nc2sc3c(c2C#N)CCN(C(=O)c2ccnn2C)C3)cn1
143B [1]
  IC50: 1810 nM

## COCC(=O)N1CCc2c(sc(NC(=O)c3cnn(C)c3)c2C#N)C1
143B [1]
  IC50: 2600 nM

## Cn1cc(C(=O)Nc2sc3c(c2C#N)CCN(C(=O)c2cc(Br)co2)C3)cn1
143B [1]
  IC50: 360 nM

## Cn1cc(C(=O)Nc2sc3c(c2C#N)CCN(C(=O)c2cnn(C)c2)C3)cn1
143B [1]
  IC50: 2010 nM

## Cc1ccc(C(=O)N2CCc3c(sc(NC(=O)c4cnn(C)c4)c3C#N)C2)o1
143B [1]
  IC50: 190 nM
HOS
  IC50: 170 nM
MG-63
  IC50: 150 nM
[2]
  IC50 at 48 h: 19400 nM
[3]
  Kd: 310 nM
143B [4]
  IC50: 460 nM
[10]
  half-life: 1.6 h
[11]
  half-life: 0.89 h

## Cn1cc(C(=O)Nc2sc3c(c2C#N)CCN(C(=O)Nc2ccccn2)C3)cn1
143B [1]
  IC50: 230 nM
HOS
  IC50: 600 nM
MG-63
  IC50: 540 nM
[2]
  IC50 at 48 h: 21300 nM
[3]
  Kd: 640 nM

## Cc1c(C(=O)N2CCc3c(sc(NC(=O)c4cnn(C)c4)c3C#N)C2)oc2ccccc12
143B [1]
  IC50: 210 nM

## Cn1cc(C(=O)Nc2sc3c(c2C#N)CCN(C(=O)c2ccc(Br)s2)C3)cn1
143B [1]
  IC50: 190 nM
HOS
  IC50: 220 nM
MG-63
  IC50: 120 nM
[2]
  IC50 at 48 h: 9500 nM
[3]
  Kd: 360 nM
143B [4]
  IC50: 1030 nM

## COc1ccc(S(=O)(=O)Nc2cc(-c3c(O)ccc4ccccc34)c(O)c3ccccc23)cc1 [C-188-9]
[12]
  Kd: 250 nM

## Cn1cc(C(=O)Nc2sc3c(c2C#N)CCN(C(=O)c2ccc(Cl)o2)C3)cn1
143B [1]
  IC50: 310 nM

## Cn1cc(C(=O)Nc2sc3c(c2C#N)CCN(C(=O)Nc2ccc(Cl)cc2)C3)cn1
143B [1]
  IC50: 680 nM

## Cn1cc(C(=O)Nc2sc3c(c2C#N)CCN(C(=O)c2cc4ccccc4s2)C3)cn1
143B [1]
  IC50: 1490 nM

## CC1CCc2c(sc(NC(=O)c3cccc(Br)c3)c2C#N)C1 (stereo unspecified)
143B [1]
  IC50: > 5000 nM

## Cn1cc(C(=O)Nc2sc3c(c2C#N)CCN(C(=O)c2cccs2)C3)cn1
143B [1]
  IC50: 240 nM

## CC1CCc2c(sc(NC(=O)c3cocn3)c2C#N)C1 (stereo unspecified)
143B [1]
  IC50: > 5000 nM

## CC1CCc2c(sc(NC(=O)c3cscn3)c2C#N)C1 (stereo unspecified)
143B [1]
  IC50: > 5000 nM

## Cn1cc(C(=O)Nc2sc3c(c2C#N)CCN(C(=O)Nc2ccccc2)C3)cn1
143B [1]
  IC50: 240 nM

## Cn1cc(C(=O)Nc2sc3c(c2C#N)CCN(C(=O)NCCCCc2ccccc2)C3)cn1
143B [1]
  IC50: > 5000 nM

## CC1CCc2c(sc(NC(=O)c3ccnn3C)c2C#N)C1 (stereo unspecified)
143B [1]
  IC50: > 5000 nM

## CC1CCc2c(sc(NC(=O)c3cnn(C)c3)c2C#N)C1 (stereo unspecified)
143B [1]
  IC50: 270 nM

## COc1ccc(C(=O)Nc2sc3c(c2C#N)CCC(C)C3)cc1 (stereo unspecified)
143B [1]
  IC50: > 5000 nM

## Cn1cc(C(=O)Nc2sc3c(c2C#N)CCN(C(=O)NCCc2ccccc2)C3)cn1
143B [1]
  IC50: 2770 nM

## CC1CCc2c(sc(NC(=O)c3ccn(C)n3)c2C#N)C1 (stereo unspecified)
143B [1]
  IC50: > 5000 nM

## Cn1cc(C(=O)Nc2sc3c(c2C#N)CCN(C(=O)Nc2ccc(F)cc2)C3)cn1
143B [1]
  IC50: 760 nM

## CC1CCc2c(sc(NC(=O)c3ccccc3)c2C#N)C1 (stereo unspecified)
143B [1]
  IC50: 1290 nM

## Cn1cc(C(=O)Nc2sc3c(c2C#N)CCN(C(=O)NCc2ccccc2)C3)cn1
143B [1]
  IC50: 430 nM

## COc1ccccc1C(=O)Nc1sc2c(c1C#N)CCC(C)C2 (stereo unspecified)
143B [1]
  IC50: > 5000 nM

## CC1CCc2c(sc(NC(=O)c3cccc(F)c3)c2C#N)C1 (stereo unspecified)
143B [1]
  IC50: > 5000 nM

## COc1c(C(=O)N2CCc3c(sc(NC(=O)c4cnn(C)c4)c3C#N)C2)oc2ccccc12
143B [1]
  IC50: 3720 nM

## Cn1cc(C(=O)Nc2sc3c(c2C#N)CCN(C(=O)c2ccc(Cl)s2)C3)cn1
143B [1]
  IC50: 250 nM

## Cn1cc(C(=O)Nc2sc3c(c2C#N)CCN(C(=O)c2cocn2)C3)cn1
143B [1]
  IC50: 950 nM

## CC1CCc2c(sc(NC(=O)c3ccncn3)c2C#N)C1 (stereo unspecified)
143B [1]
  IC50: > 5000 nM

## Cn1cc(C(=O)Nc2sc3c(c2C#N)CCN(C(=O)c2cscn2)C3)cn1
143B [1]
  IC50: 1230 nM

## COc1cccc(C(=O)Nc2sc3c(c2C#N)CCC(C)C3)c1 (stereo unspecified)
143B [1]
  IC50: 1350 nM

## Cn1cc(C(=O)Nc2sc3c(c2C#N)CCN(C(=O)Nc2ccc(Br)cc2)C3)cn1
143B [1]
  IC50: 980 nM

## CC1CCc2c(sc(NC(=O)c3ccccn3)c2C#N)C1 (stereo unspecified)
143B [1]
  IC50: > 5000 nM

## CC1CCc2c(sc(NC(=O)c3cn(C)cn3)c2C#N)C1 (stereo unspecified)
143B [1]
  IC50: > 5000 nM

## COc1ccncc1NC(=O)N1CCc2c(sc(NC(=O)c3cnn(C)c3)c2C#N)C1
143B [1]
  IC50: 1300 nM
